Measured values as given in paper PMC3959874 (European journal of dermatology : EJD, 2013).
Read-outs that look alike come from different tables or passages of the source.

Tests used:
CYP1A2 = CYP1A2 (Homo sapiens, UniProt P05177); experiment: Cytochrome P450 enzyme assay; format: in vitro ADME; details: human
CYP2C19 = CYP2C19 (Homo sapiens, UniProt P33261); experiment: Cytochrome P450 enzyme assay; format: in vitro ADME; details: human
CYP2C9 = CYP2C9 (Homo sapiens, UniProt P11712); experiment: Cytochrome P450 enzyme assay; format: in vitro ADME; details: human
CYP2D6 = CYP2D6 (Homo sapiens, UniProt P10635); experiment: Cytochrome P450 enzyme assay; format: in vitro ADME; details: human
CYP3A4 = CYP3A4 (Homo sapiens, UniProt P08684); experiment: Cytochrome P450 enzyme assay; format: in vitro ADME; details: human
Adenosine A1 = Adenosine A1 (Homo sapiens, UniProt P30542); experiment: Radioligand binding assay; details: read-out: Percent inhibition of specific radioligand binding
Sequence of Adenosine A1 (P30542 whole entry): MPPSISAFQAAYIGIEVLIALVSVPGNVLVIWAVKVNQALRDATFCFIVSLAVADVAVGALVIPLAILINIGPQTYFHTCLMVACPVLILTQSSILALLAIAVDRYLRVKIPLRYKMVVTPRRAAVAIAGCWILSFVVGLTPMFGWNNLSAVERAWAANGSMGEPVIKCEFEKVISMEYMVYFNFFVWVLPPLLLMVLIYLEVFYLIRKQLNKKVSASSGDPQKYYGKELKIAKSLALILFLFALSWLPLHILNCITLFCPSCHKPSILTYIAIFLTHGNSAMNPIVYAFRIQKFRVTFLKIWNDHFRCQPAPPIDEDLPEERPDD

Adrenergic β1 = Adrenergic β1 (Homo sapiens, UniProt P08588); experiment: Radioligand binding assay; details: read-out: Percent inhibition of specific radioligand binding
[1] = target: Androgen (Testosterone) AR (Rattus norvegicus, UniProt P15207); experiment: Radioligand binding assay; details: read-out: Percent inhibition of specific radioligand binding
Bradykinin B1 = Bradykinin B1 (Homo sapiens, UniProt P46663); experiment: Radioligand binding assay; details: read-out: Percent inhibition of specific radioligand binding
Bradykinin B2 = Bradykinin B2 (Homo sapiens, UniProt P30411); experiment: Radioligand binding assay; details: read-out: Percent inhibition of specific radioligand binding
Sequence of Bradykinin B2 (P30411 whole entry): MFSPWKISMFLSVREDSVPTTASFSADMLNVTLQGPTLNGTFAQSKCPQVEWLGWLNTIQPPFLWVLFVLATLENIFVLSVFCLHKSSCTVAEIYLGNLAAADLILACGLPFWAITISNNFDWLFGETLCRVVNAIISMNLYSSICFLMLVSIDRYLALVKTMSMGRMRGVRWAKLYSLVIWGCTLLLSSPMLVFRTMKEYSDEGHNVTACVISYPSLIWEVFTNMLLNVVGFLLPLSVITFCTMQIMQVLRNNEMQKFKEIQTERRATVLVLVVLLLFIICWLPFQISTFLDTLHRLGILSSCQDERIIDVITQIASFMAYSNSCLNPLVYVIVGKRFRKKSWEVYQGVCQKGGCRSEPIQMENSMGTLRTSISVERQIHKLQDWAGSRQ

[2] = test system: Calcium Channel L-Type, Benzothiazepine; experiment: Radioligand binding assay; design: species or system rat; details: 10 μM; 4 °C, 180 min
[3] = test system: Calcium Channel L-Type, Dihydropyridine; experiment: Radioligand binding assay; design: species or system rat; details: 10 μM; 25 °C, 90 min
Calcium Channel N-Type = Calcium Channel N-Type (Rattus norvegicus, UniProt Q02294); experiment: Radioligand binding assay; details: read-out: Percent inhibition of specific radioligand binding
Cannabinoid CB1 = Cannabinoid CB1 (Homo sapiens, UniProt P21554); experiment: Radioligand binding assay; details: read-out: Percent inhibition of specific radioligand binding
Dopamine D1 = Dopamine D1 (Homo sapiens, UniProt P21728); experiment: Radioligand binding assay; details: read-out: Percent inhibition of specific radioligand binding
Dopamine D4.2 = Dopamine D4.2 (Homo sapiens, UniProt P21917, DEL265-296); experiment: Radioligand binding assay; details: read-out: Percent inhibition of specific radioligand binding
Endothelin ETB = Endothelin ETB (Homo sapiens, UniProt P24530); experiment: Radioligand binding assay; details: read-out: Percent inhibition of specific radioligand binding
Sequence of Endothelin ETB (P24530 27-442): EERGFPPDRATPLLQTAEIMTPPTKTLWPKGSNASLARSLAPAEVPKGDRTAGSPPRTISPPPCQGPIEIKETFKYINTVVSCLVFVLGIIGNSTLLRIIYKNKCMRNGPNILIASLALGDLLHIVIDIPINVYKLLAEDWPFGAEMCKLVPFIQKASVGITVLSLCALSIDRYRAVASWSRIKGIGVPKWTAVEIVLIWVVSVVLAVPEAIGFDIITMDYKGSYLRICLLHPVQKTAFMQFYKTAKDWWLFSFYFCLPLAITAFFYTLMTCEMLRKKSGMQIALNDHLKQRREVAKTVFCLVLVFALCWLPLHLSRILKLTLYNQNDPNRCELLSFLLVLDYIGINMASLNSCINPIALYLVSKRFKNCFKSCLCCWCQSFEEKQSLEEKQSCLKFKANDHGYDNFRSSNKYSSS

[4] = target: Epidermal Growth Factor (EG F) (Homo sapiens, UniProt P00533); experiment: Radioligand binding assay; details: read-out: Percent inhibition of specific radioligand binding
Sequence of Epidermal Growth Factor (EG F) (P00533 25-1210): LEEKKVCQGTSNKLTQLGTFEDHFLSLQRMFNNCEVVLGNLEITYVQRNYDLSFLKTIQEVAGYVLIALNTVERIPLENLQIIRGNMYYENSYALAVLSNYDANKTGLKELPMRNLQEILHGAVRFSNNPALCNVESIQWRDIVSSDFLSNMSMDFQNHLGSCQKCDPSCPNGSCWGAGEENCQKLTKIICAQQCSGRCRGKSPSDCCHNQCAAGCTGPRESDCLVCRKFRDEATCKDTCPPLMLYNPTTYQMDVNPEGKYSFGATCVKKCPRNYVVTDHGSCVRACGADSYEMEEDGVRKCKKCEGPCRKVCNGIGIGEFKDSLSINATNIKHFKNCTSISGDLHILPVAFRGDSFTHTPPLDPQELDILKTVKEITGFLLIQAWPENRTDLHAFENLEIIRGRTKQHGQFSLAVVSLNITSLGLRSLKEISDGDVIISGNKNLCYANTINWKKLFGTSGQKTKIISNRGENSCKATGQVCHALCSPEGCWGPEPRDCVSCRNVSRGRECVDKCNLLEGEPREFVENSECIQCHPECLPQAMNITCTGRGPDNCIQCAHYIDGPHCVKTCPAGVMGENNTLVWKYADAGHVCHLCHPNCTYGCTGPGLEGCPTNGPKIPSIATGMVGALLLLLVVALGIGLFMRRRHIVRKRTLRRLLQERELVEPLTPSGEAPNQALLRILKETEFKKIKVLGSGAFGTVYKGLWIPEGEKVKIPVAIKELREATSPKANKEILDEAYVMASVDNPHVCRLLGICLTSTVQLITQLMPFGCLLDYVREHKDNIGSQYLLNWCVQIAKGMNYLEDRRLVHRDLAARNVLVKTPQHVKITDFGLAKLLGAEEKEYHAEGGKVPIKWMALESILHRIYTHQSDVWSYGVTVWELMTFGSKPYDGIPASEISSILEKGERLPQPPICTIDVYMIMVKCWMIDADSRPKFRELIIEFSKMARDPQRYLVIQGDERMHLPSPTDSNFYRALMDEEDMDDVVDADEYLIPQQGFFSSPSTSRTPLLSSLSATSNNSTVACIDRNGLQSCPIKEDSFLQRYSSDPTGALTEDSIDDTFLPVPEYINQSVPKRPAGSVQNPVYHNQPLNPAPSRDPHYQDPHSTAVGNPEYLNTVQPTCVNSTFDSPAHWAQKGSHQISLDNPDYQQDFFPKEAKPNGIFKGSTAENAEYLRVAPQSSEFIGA

Estrogen ERa = Estrogen ERa (Homo sapiens, UniProt P03372); experiment: Radioligand binding assay; details: read-out: Percent inhibition of specific radioligand binding
Sequence of Estrogen ERa (P03372 whole entry): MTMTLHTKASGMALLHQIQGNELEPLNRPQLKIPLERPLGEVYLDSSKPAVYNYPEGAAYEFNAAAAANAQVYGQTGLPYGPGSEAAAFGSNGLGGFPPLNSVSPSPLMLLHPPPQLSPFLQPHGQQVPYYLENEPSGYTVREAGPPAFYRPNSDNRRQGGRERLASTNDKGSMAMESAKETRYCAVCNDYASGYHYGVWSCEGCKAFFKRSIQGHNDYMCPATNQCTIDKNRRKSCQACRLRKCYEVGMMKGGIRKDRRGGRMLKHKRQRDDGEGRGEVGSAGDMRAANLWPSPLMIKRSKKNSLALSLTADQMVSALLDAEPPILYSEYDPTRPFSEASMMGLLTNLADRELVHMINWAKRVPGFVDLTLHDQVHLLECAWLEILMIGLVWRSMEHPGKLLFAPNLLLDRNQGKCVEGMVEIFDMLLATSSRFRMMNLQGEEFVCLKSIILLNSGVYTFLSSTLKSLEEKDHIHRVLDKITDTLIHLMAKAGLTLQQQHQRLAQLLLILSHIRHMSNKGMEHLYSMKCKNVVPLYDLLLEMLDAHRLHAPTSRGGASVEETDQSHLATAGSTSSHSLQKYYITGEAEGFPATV

[5] = test system: GABAA, Flunitrazepam, Cent ral; experiment: Radioligand binding assay; design: species or system rat; details: 10 μM; 25 °C, 120 min
GABAA, Muscimol, Central = experiment: Radioligand binding assay; design: species or system rat; details: 10 μM; 4 °C, 10 min
Glucocorticoid = Glucocorticoid (Homo sapiens, UniProt P04150); experiment: Radioligand binding assay; details: read-out: Percent inhibition of specific radioligand binding
Glutamate, Kainate = experiment: Radioligand binding assay; design: species or system rat; details: 10 μM; 4 °C, 60 min
Glutamate, NMDA, Agonism = experiment: Radioligand binding assay; design: species or system rat; details: 10 μM; 4 °C, 20 min
Glutamate, NMDA, Glycine = Glutamate, NMDA, Glycine (Rattus norvegicus, UniProt P35439); experiment: Radioligand binding assay; details: read-out: Percent inhibition of specific radioligand binding
[6] = test system: Glutamate, NMDA, Phencyclidine; experiment: Radioligand binding assay; design: species or system rat; details: 10 μM; 25 °C, 45 min
Histamine H3 = Histamine H3 (Homo sapiens, UniProt Q9Y5N1); experiment: Radioligand binding assay; details: read-out: Percent inhibition of specific radioligand binding
Sequence of Histamine H3 (Q9Y5N1 whole entry): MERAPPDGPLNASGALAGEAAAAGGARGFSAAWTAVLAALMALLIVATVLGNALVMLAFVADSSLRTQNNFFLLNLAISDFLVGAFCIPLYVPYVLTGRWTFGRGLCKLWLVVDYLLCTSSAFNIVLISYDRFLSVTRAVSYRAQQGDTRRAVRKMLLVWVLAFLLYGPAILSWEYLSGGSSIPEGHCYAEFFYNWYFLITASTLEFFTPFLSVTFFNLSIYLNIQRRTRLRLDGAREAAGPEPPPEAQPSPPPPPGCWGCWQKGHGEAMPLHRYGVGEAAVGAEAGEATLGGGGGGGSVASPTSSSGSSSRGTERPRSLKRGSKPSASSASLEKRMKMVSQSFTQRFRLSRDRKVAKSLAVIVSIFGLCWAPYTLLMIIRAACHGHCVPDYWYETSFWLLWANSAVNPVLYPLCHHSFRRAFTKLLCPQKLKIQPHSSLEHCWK

Imidazoline I2, Central = experiment: Radioligand binding assay; design: species or system rat; details: 10 μM; 25 °C, 30 min
Interleukin IL-1 = Interleukin IL-1 (Mus musculus, UniProt P13504); experiment: Radioligand binding assay; details: read-out: Percent inhibition of specific radioligand binding
[7] = target: Leukotriene, Cysteinyl CysLT 1 (Homo sapiens, UniProt Q9Y271); experiment: Radioligand binding assay; details: read-out: Percent inhibition of specific radioligand binding
Muscarinic M2 = Muscarinic M2 (Homo sapiens, UniProt P08172); experiment: Radioligand binding assay; details: read-out: Percent inhibition of specific radioligand binding
Neuropeptide Y Y2 = Neuropeptide Y Y2 (Homo sapiens, UniProt P49146); experiment: Radioligand binding assay; details: read-out: Percent inhibition of specific radioligand binding
Sequence of Neuropeptide Y Y2 (P49146 whole entry): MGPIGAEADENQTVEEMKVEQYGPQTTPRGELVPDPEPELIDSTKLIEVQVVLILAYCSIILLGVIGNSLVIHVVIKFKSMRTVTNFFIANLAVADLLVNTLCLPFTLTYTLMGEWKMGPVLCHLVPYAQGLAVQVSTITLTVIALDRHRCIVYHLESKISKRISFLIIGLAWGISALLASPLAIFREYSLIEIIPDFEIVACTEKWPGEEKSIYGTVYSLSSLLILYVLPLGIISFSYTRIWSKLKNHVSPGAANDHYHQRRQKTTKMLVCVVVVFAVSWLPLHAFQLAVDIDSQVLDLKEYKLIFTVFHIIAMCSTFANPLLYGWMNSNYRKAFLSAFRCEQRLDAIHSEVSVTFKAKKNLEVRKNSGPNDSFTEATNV

Nicotinic Acetylcholine = experiment: Radioligand binding assay; design: species or system human; details: 10 μM; 25 °C, 60 min
[8] = target: Nicotinic Acetylcholine a1, Bungarotoxin (Homo sapiens, UniProt P02708+P07510+Q07001); experiment: Radioligand binding assay; details: read-out: Percent inhibition of specific radioligand binding
Opiate 51 (OP1, DOP) = Opiate 51 (OP1, DOP) (Homo sapiens, UniProt P41143); experiment: Radioligand binding assay; details: read-out: Percent inhibition of specific radioligand binding
Phorbol Ester = experiment: Radioligand binding assay; design: species or system mouse; details: 10 μM; 25 °C, 60 min
[9] = target: Platelet Activating Factor (PA F) (Homo sapiens, UniProt P25105); experiment: Radioligand binding assay; details: read-out: Percent inhibition of specific radioligand binding
Sequence of Platelet Activating Factor (PA F) (P25105 whole entry): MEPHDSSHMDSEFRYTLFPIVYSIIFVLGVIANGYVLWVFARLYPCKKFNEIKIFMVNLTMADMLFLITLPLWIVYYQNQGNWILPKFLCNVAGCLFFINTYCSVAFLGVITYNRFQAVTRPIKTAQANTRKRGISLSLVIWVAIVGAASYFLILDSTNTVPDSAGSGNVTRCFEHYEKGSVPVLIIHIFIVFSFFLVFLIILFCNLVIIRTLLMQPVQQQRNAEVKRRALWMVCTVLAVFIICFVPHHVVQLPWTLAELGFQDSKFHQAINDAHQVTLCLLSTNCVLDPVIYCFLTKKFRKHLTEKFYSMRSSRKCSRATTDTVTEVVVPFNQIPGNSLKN

Potassium Channel [KATP] = experiment: Radioligand binding assay; design: species or system human; details: 10 μM; 25 °C, 120 min
hERG potassium channel = hERG potassium channel (Homo sapiens, UniProt Q12809); experiment: Radioligand binding assay; details: human
Prostanoid EP4 = Prostanoid EP4 (Homo sapiens, UniProt P35408); experiment: Radioligand binding assay; details: read-out: Percent inhibition of specific radioligand binding
Purinergic P2x = experiment: Radioligand binding assay; design: species or system rabbit; details: 10 μM; 25 °C, 30 min
Purinergic P2, = experiment: Radioligand binding assay; design: species or system rat; details: 10 μM; 25 °C, 60 min
[10] = target: Serotonin (5-Hydroxytryptam ine) 5-HT1A (Homo sapiens, UniProt P08908); experiment: Radioligand binding assay; details: read-out: Percent inhibition of specific radioligand binding
[11] = target: Serotonin (5-Hydroxytryptam ine) 5-HT2B (Homo sapiens, UniProt P41595); experiment: Radioligand binding assay; details: read-out: Percent inhibition of specific radioligand binding
Thyroid Hormone = experiment: Radioligand binding assay; design: species or system rat; details: 10 μM; 4 °C, 18 hrs
Transporter, GABA = Transporter, GABA (Rattus norvegicus, UniProt P23978); experiment: Radioligand binding assay; details: read-out: Percent inhibition of specific radioligand binding
[12] = target: Transporter, Norepinephrine (NET) (Homo sapiens, UniProt P23975); experiment: Radioligand binding assay; details: read-out: Percent inhibition of specific radioligand binding
[13] = format: in vivo, mice; details: for Body weight change after a single intravenous injection of the MTD: 150 mg/kg TMX-202 or 15 mg/kg IMQ i.v. (figure 4)
human PBMC = details: up to 1 μM; ref [24]; cited from earlier work
[14] = Serum drug concentration after topical skin application; details: C57BL/6, mouse, serum

## CC(C)Cn1cnc2c(N)nc3ccccc3c21 [IMQ, imiquimod, reference compound]
CYP1A2
  inhibition at 30 min, 10 µM: 66%
CYP2C19
  inhibition at 45 min, 10 µM: 10%
CYP2C9
  inhibition at 45 min, 10 µM: 3%
CYP2D6
  inhibition at 45 min, 10 µM: 29%
CYP3A4
  inhibition at 30 min, 10 µM: 1%
Adenosine A1
  inhibition at 10 µM: 50%
Adrenergic β1
  inhibition at 10 µM: 19%
[1]
  inhibition at 10 µM: 7%
Bradykinin B1
  inhibition at 10 µM: 4%
Bradykinin B2
  inhibition at 10 µM: -1%
[2]
  Percent inhibition of specific radioligand binding: 4%
[3]
  Percent inhibition of specific radioligand binding: −14%
Calcium Channel N-Type
  inhibition at 10 µM: 2%
Cannabinoid CB1
  inhibition at 10 µM: -4%
Dopamine D1
  inhibition at 10 µM: 66%
Dopamine D4.2
  inhibition at 10 µM: 2%
Endothelin ETB
  inhibition at 10 µM: 0%
[4]
  inhibition at 10 µM: -1%
Estrogen ERa
  inhibition at 10 µM: 0%
[5]
  Percent inhibition of specific radioligand binding: 37%
GABAA, Muscimol, Central
  Percent inhibition of specific radioligand binding: 19%
Glucocorticoid
  inhibition at 10 µM: -2%
Glutamate, Kainate
  Percent inhibition of specific radioligand binding: −8%
Glutamate, NMDA, Agonism
  Percent inhibition of specific radioligand binding: 2%
Glutamate, NMDA, Glycine
  inhibition at 10 µM: -6%
[6]
  Percent inhibition of specific radioligand binding: 4%
Histamine H3
  inhibition at 10 µM: 4%
Imidazoline I2, Central
  Percent inhibition of specific radioligand binding: 57%
Interleukin IL-1
  inhibition at 10 µM: 5%
[7]
  inhibition at 10 µM: 10%
Muscarinic M2
  inhibition at 10 µM: 3%
Neuropeptide Y Y2
  inhibition at 10 µM: 6%
Nicotinic Acetylcholine
  Percent inhibition of specific radioligand binding: 3%
[8]
  inhibition at 10 µM: 7%
Opiate 51 (OP1, DOP)
  inhibition at 10 µM: 5%
Phorbol Ester
  Percent inhibition of specific radioligand binding: 21%
[9]
  inhibition at 10 µM: 2%
Potassium Channel [KATP]
  Percent inhibition of specific radioligand binding: −5%
hERG potassium channel
  inhibition at 60 min, 10 µM: 45%
Prostanoid EP4
  inhibition at 10 µM: 6%
Purinergic P2x
  Percent inhibition of specific radioligand binding: −7%
Purinergic P2,
  Percent inhibition of specific radioligand binding: 10%
[10]
  inhibition at 10 µM: 19%
[11]
  inhibition at 10 µM: 45%
Thyroid Hormone
  Percent inhibition of specific radioligand binding: −5%
Transporter, GABA
  inhibition at 10 µM: 2%
[12]
  inhibition at 10 µM: 30%
[13]; C57BL/6, mouse, in vivo, iv
  MTD at 8 days: 15 mg/kg
[13]; C57BL/6 mice, intravenous administration
  MTD (molar): approximately 62.5 μmoles/kg
[13]; Tlr7−/− or Myd88−/− mice
  Body weight change after a single intravenous injection of the MTD: did not result in body weight changes
[13]; WT mice
  Body weight change after a single intravenous injection of the MTD: did not result in body weight changes
Human PBMC
  IFN-γ secretion in human PBMC: does not stimulate IFN-γ secretion
[14]
  concentration at 1 h: 0.139 ± 0.0612 ng/mL
